Results reported in patent US20110045998A1, “CANDIDATE GENES AND BLOOD BIOMARKERS FOR BIPOLAR MOOD DISORDER, ALCOHOLISM AND STRESS DISORDER” (priority 2007, published 2011).
Entries after “also recorded” stand apart in the source; their conditions may differ. Read-outs that look alike come from different tables or passages of the source.

Experiments:
DBP KO mice = assay: Sleep deprivation experiments with valproate pre-treatment, locomotor activity by video tracking; format: in vivo
Method: To further characterize the behavioral phenotype of the DBP KO mice, group-housed (NST) male DBP KO mice were subjected to sleep deprivation for a 24 hour period. Following sleep deprivation, sleep-deprived (SD) mice and control non sleep-deprived (NSD) mice were monitored with video-tracking software. […] In a second sleep deprivation experiment, mice were pre-treated with an IP valproate injection (200 mg/kg) immediately prior to the sleep deprivation experiment. If the change in locomotor behavior that accompanies sleep-deprivation in the SD animals is representative of an endophenotype that is associated with bipolar disorder, then administration of the mood stabilizing agent valproate should counteract the behavioral response of DBP KO mice to sleep deprivation. […] Sleep Deprivation Experiments: Sleep deprivation studies consisted of light cycle changes, with no handling of animals involved, to avoid inducing non-sleep related handling stress confounds. Male DBP KO mice were used in the sleep deprivation experiments as follows: sleep deprived (SD) animals were removed from the standard housing room with a 12 hour off/12 hour on (reverse) light cycle and kept in a dark room overnight the night before the experiment. Non-sleep deprived (NSD) animals were kept in the housing room with the standard light cycle the night before the experiment to allow for a normal night's sleep. […]

[1] = tested on: brain gene expression (PFC, AMY, CP, VT); set-up: key: I—Increased in expression; D—decreased in expression; settings: cited from earlier work
DBP KO NST mice = assay: Locomotor pattern testing (open field video tracking) after acute methamphetamine, non-stressed mice; format: in vivo; settings: methamphetamine 10 mg/kg intra-peritoneal
Method: Drugs: Mice were administered saline, valproate (200 mg/kg), or methamphetamine (10 mg/kg) acutely by intra-peritoneal injection.
Locomotor Pattern Testing: A SMART II Video Tracker (VT) system (San Diego Instruments, San Diego, Calif.) was used to track movement of mice immediately after drug administration and again 24 hours later. After injection, mice were placed in the lower-right-hand corner of one of four adjacent, 41×41×34-cm^3 enclosures. Mice had no physical contact with other mice during testing. Each enclosure has nine pre-defined areas, i.e. center area, corner area, and wall area. The movements of the mice were recorded for 30 minutes.
Measures of overall locomotor activity were obtained and represented by the total distance traveled within and between each of the nine regions of the enclosure. Two categories of behavior were obtained. First, the amount of locomotor activity was assessed by using the total distance traveled in the open field in a 30-minute interval. Second, the spatial scaling exponent, d, or spatial D, was obtained. Spatial D is a quantified measure of the geometric patterns of locomotor activity. Briefly, spatial d is a measure of the non-linear nature of an animal's locomotor movement and is quantified on a scale from 1 to 2; with d=1 indicating extremely linear movement and d=2 representing highly non-linear locomotor movement.
Data and Statistical Analysis: Two-way analyses of variance (ANOVAs) were used to compare total distance traveled and spatial d. Genotype and/or drug treatment were between-subjects variables, and time was a within-subjects variable. All computations were conducted with SPSS statistical software (SPSS Inc., Chicago, Ill.).
Non-Stress (NST) vs. Stress (ST) Experiments: For the Non-Stress (NST) experiments, mice were group housed. For the Stress (ST) experiments, mice were subjected to a chronic stress paradigm consisting of isolation (single housing) for one month, with an acute stressor (behavioral challenge tests) in Week 3. […] At four weeks, mice were injected with either saline or methamphetamine.

Compound: CCCC(CCC)C(=O)O [valproate, valproic acid]
- locomotion in NSD animals (DBP KO mice; NSD DBP KO mice, valproate 200 mg/kg vs non-valproate treated): did not have any significant effect on locomotion
- total distance traveled, sleep-deprived (SD) vs non sleep-deprived (NSD) (DBP KO mice; male DBP KO mice, IP valproate 200 mg/kg prior to 24 hour sleep deprivation): increase in locomotion is prevented; also recorded: no significant difference in the locomotor behavior of SD and NSD animals
- Cdk5r1 expression, Bipolar CFG (Ogden et al. 2004) ([1]; AMY, Cat II): AMY Cat II-Meth(D) VPA(D)
- Cacnb2 expression, Bipolar CFG (Ogden et al. 2004) ([1]; AMY, Cat III): AMY Cat III-VPA(D)
- Ckmt1 expression, Bipolar CFG (Ogden et al. 2004) ([1]; AMY, Cat III): AMY Cat III-Meth(I) VPA(I)
- Ids expression, Bipolar CFG (Ogden et al. 2004) ([1]; AMY, Cat III): AMY Cat III-VPA(D)
- Mef2c expression, Bipolar CFG (Ogden et al. 2004) ([1]; AMY, Cat III): AMY Cat III-VPA(D)
- Ptov1 expression, Bipolar CFG (Ogden et al. 2004) ([1]; AMY, Cat III): AMY Cat III-VPA(I)
- Actb expression, Bipolar CFG (Ogden et al. 2004) ([1]; AMY, Cat IV): AMY Cat IV-VPA (I)
- Alcam expression, Bipolar CFG (Ogden et al. 2004) ([1]; AMY, Cat IV): AMY Cat IV-VPA(D)
- Atp8a1 expression, Bipolar CFG (Ogden et al. 2004) ([1]; AMY, Cat IV): AMY Cat IV-VPA(D)
- Clasp2 expression, Bipolar CFG (Ogden et al. 2004) ([1]; AMY, Cat IV): AMY Cat IV-VPA(D)
- Peg3 expression, Bipolar CFG (Ogden et al. 2004) ([1]; AMY, Cat IV): AMY Cat IV-VPA(D)
- Ptpn5/Step expression, Bipolar CFG (Ogden et al. 2004) ([1]; AMY, Cat IV): AMY Cat IV-VPA (I)
- Sez6 expression, Bipolar CFG (Ogden et al. 2004) ([1]; AMY, Cat IV): AMY Cat IV-VPA(I)
- Timp2 expression, Bipolar CFG (Ogden et al. 2004) ([1]; AMY, Cat IV): AMY Cat IV-VPA (D)
- Cdk5r1 expression, Bipolar CFG (Ogden et al. 2004) ([1]; CP, Cat III): CP Cat III-VPA(I)
- Alcam expression, Bipolar CFG (Ogden et al. 2004) ([1]; CP, Cat IV): CP Cat IV-VPA(D)
- Cacnb2 expression, Bipolar CFG (Ogden et al. 2004) ([1]; CP, Cat IV): CP Cat IV-VPA(I)
- Gnb1 expression, Bipolar CFG (Ogden et al. 2004) ([1]; CP, Cat IV): CP Cat IV-VPA (D)
- Ids expression, Bipolar CFG (Ogden et al. 2004) ([1]; CP, Cat IV): CP Cat IV-VPA(I)
- Mef2a expression, Bipolar CFG (Ogden et al. 2004) ([1]; CP, Cat IV): CP Cat IV-VPA (I)
- Gsk3b expression, Bipolar CFG (Ogden et al. 2004) ([1]; CP, IV): CP IV-VPA (D)
- Gpr88 expression, Bipolar CFG (Ogden et al. 2004) ([1]; PFC, Cat I): PFC Cat I-Meth(I) VPA (I)
- Mef2c expression, Bipolar CFG (Ogden et al. 2004) ([1]; PFC, Cat I): I
- Penk1 expression, Bipolar CFG (Ogden et al. 2004) ([1]; PFC, Cat I): PFC Cat I-Meth(I) VPA(I)
- Ppp1r1b/Darp32 expression, Bipolar CFG (Ogden et al. 2004) ([1]; PFC, Cat I): PFC Cat I-Meth(I) VPA(I)
- Tac1 expression, Bipolar CFG (Ogden et al. 2004) ([1]; PFC, Cat I): PFC Cat I-Meth(I) VPA(I)
- Gng7 expression, Bipolar CFG (Ogden et al. 2004) ([1]; PFC, Cat III): PFC Cat III-Meth(I) VPA(I)
- Scn4b expression, Bipolar CFG (Ogden et al. 2004) ([1]; PFC, Cat III): PFC Cat III-Meth(I) VPA(I)

Compound: CN[C@@H](C)Cc1ccccc1 [methamphetamine]
- stereotypy, as measured by Spatial Deviance (DBP KO NST mice; DBP KO NST mice): reduction in stereotypy
- Total Distance Traveled (DBP KO NST mice; DBP KO NST mice, 30 minutes open field): reversed this decrease
- stereotypy, as measured by Spatial Deviance (DBP KO NST mice; WT mice): trend towards an increase in stereotypy
- Cdk5r1 expression, Bipolar CFG (Ogden et al. 2004) ([1]; AMY, Cat II): AMY Cat II-Meth(D) VPA(D)
- Ckmt1 expression, Bipolar CFG (Ogden et al. 2004) ([1]; AMY, Cat III): AMY Cat III-Meth(I) VPA(I)
- Sec24d expression, Bipolar CFG (Ogden et al. 2004) ([1]; AMY, Cat III): AMY Cat III-Meth(I)
- Gas5 expression, Bipolar CFG (Ogden et al. 2004) ([1]; AMY, Cat IV): AMY Cat IV-Meth(I)
- Gnb1 expression, Bipolar CFG (Ogden et al. 2004) ([1]; AMY, Cat IV): AMY Cat IV-Meth (I)
- Mef2a expression, Bipolar CFG (Ogden et al. 2004) ([1]; AMY, Cat IV): AMY Cat IV-Meth (D)
- Ttr expression, Bipolar CFG (Ogden et al. 2004) ([1]; CP, Cat IV): CP Cat IV-Meth(I)
- Gpr88 expression, Bipolar CFG (Ogden et al. 2004) ([1]; PFC, Cat I): PFC Cat I-Meth(I) VPA (I)
- Mef2c expression, Bipolar CFG (Ogden et al. 2004) ([1]; PFC, Cat I): D
- Penk1 expression, Bipolar CFG (Ogden et al. 2004) ([1]; PFC, Cat I): PFC Cat I-Meth(I) VPA(I)
- Ppp1r1b/Darp32 expression, Bipolar CFG (Ogden et al. 2004) ([1]; PFC, Cat I): PFC Cat I-Meth(I) VPA(I)
- Tac1 expression, Bipolar CFG (Ogden et al. 2004) ([1]; PFC, Cat I): PFC Cat I-Meth(I) VPA(I)
- Alcam expression, Bipolar CFG (Ogden et al. 2004) ([1]; PFC, Cat III): PFC Cat III-Meth(D)
- Ddx6 expression, Bipolar CFG (Ogden et al. 2004) ([1]; PFC, Cat III): PFC Cat III-Meth (D)
- Gng7 expression, Bipolar CFG (Ogden et al. 2004) ([1]; PFC, Cat III): PFC Cat III-Meth(I) VPA(I)
- Scn4b expression, Bipolar CFG (Ogden et al. 2004) ([1]; PFC, Cat III): PFC Cat III-Meth(I) VPA(I)
- Actb expression, Bipolar CFG (Ogden et al. 2004) ([1]; PFC, Cat IV): PFC Cat IV-Meth (D)
- Arhgap5 expression, Bipolar CFG (Ogden et al. 2004) ([1]; PFC, Cat IV): PFC Cat IV-Meth (I)
- Gabra4 expression, Bipolar CFG (Ogden et al. 2004) ([1]; PFC, Cat IV): PFC Cat IV-METH (I)
- Gsk3b expression, Bipolar CFG (Ogden et al. 2004) ([1]; PFC, Cat IV): PFC Cat IV-METH (D)
- Hectd1 expression, Bipolar CFG (Ogden et al. 2004) ([1]; PFC, Cat IV): PFC Cat IV-Meth(D)
- Peg3 expression, Bipolar CFG (Ogden et al. 2004) ([1]; PFC, Cat IV): PFC Cat IV-Meth(D)
- Pten expression, Bipolar CFG (Ogden et al. 2004) ([1]; PFC, Cat IV): PFC Cat IV-Meth(D)
- Tmod2 expression, Bipolar CFG (Ogden et al. 2004) ([1]; PFC, Cat IV): PFC Cat IV-METH (D)
- Alcam expression, Bipolar CFG (Ogden et al. 2004) ([1]; VT, Cat IV): VT Cat IV-Meth(D)
- Ddx6 expression, Bipolar CFG (Ogden et al. 2004) ([1]; VT, Cat IV): VT Cat IV-Meth (D)
